Columns and labels:
Format in all cases: cell-based, mouse
MC3T3-E1 cells [1] = test: ALP activity analysis in MC3T3-E1 cell lysate; conditions: 5, 10, and 20 νM, 7 days, absorbance 405 nm, FIG. 16
Procedure: In order to analyze the effect of the compound of Chemical Formula 1 according to the present invention on ALP activity, MC3T3-E1 cells, which are mouse osteoblasts, were inoculated into a 96-well plate at a concentration of 5×10^3 cell/well, and incubated overnight in growth media containing alpha-minimum essential media (alpha-MEM, JBI #008-53) supplemented with 10% fetal bovine serum (FBS, Gibco #16000, USA) and 1× antibiotics (Gibco #15240062, USA). As a negative control, an alpha minimum essential medium containing 10% FBS was used. As a positive control, 100 μg/ml of ALP-activating ascorbic acid and 10 mM of β-glycerophosphate were mixed, and the positive control was exchanged with media added with 5, 10, and 20 νM of Chemical Formula 1-1 (6-J) on Day 3, and treated for 7 days. After 7 days, the media were removed and the cells were washed with PBS, and the cultured MC3T3-E1 cells were lysed with 0.1% TritonX-100 (in PBS) solution and centrifuged to obtain only the supernatant. A predetermined amount of supernatant and ALP were added and reacted for 30 minutes, and then the absorbance was confirmed at 405 nm.

[2] = tested on: adipocyte differentiation-associated proteins in the 3T3-L1 cell line; test: Western blotting of adipocyte differentiation-associated proteins; conditions: 7.5 μM, FIG. 10
Procedure: Additionally, in order to verify the adipogenesis inhibitory ability of the Chemical Formula 1 according to the present invention, the level of adipocyte differentiation-associated proteins in the 3T3-L1 cell line was measured. The 3T3-L1 cells were cultured in a 6-well plate (2×10^5 cell/well), and the next day, the cells were replaced with normal culture media (Undifferentiated media; UND) and differentiation induction media (Differentiation media; DM), respectively, followed by treatment with the compound of Chemical Formula 1-1 at 7.5 μM for 48 hours, and then the cells were replaced with new normal culture media (Maintaining media; MM). When replacement with normal culture media, the cells were treated with 7.5 μM of Chemical Formula 1-1, and cultured for 72 hours more, followed by Western blotting.

MC3T3-E1 cells [3] = test: Alkaline phosphatase (ALP) staining of MC3T3-E1 cells; conditions: 5, 10, and 20 νM, 7 days, FIG. 15
Excerpt: In order to analyze the effect of the compound of Chemical Formula 1 according to the present invention on ALP activity, the morphology of MC3T3-E1 cells according to the treatment with the compound of Chemical Formula 1 according to the present invention was confirmed by alkaline phosphatase (ALP) staining of the MC3T3-E1 cell line.
In the present Example, the effect of Chemical Formula 1-1 on the activity of alkaline phosphatase (ALP), which is one of the representative markers of osteoblast differentiation, was measured. MC3T3-E1 cells, which are mouse osteoblasts, were inoculated into a 96-well plate at a concentration of 5×10^3 cell/well, and incubated overnight in growth media containing alpha-minimum essential media (alpha-MEM, JBI #008-53) supplemented with 10% fetal bovine serum (FBS, Gibco #16000, USA) and 1× antibiotics (Gibco #15240062, USA). As a negative control, an alpha minimum essential medium containing 10% FBS was used. As positive controls, 100 μg/ml of ALP-activating ascorbic acid and 10 mM of β-glycerophosphate were mixed, and the positive controls were exchanged with media added with 5, 10, and 20 νM of Chemical Formula 1-1 on Day 3, and treated for 7 days. After 7 days, the media were discarded, and the cells were washed with PBS, and fixed with 10% formalin for 1 minute. […]

[4] = tested on: adipogenesis-associated genes (3T3-L1 cells); test: Q-PCR of adipogenesis-associated genes; conditions: FIG. 11
Excerpt: In addition, real-time polymerase chain reaction (Q-PCR) was used to confirm the expression of adipogenesis-associated genes. As a result, it was confirmed that the amount of adipogenesis induction-associated mRNA was reduced when treated with the compound of Chemical Formula 1 according to the present invention (FIG. 11).

CC(C)CC1NC(=O)C2CCCN2C(=O)C(C(O)C(C)C)NC(=O)CNC(=O)C(C(C)O)NC(=O)C2NC(=O)C(NC(=O)/C=C/c3ccccc3C(O)C(C)O)C(C)OC(=O)C(CC(N)=O)NC(=O)C(NC(=O)C(O)NC1=O)C(O)c1ccc(O)c(c1)Oc1ccc2cc1 (centres unmarked) [Chemical Formula 1-1]
ALP activity (MC3T3-E1 cells [1]): increased | level of adipogenesis induction-associated proteins ([2]; compound alone, differentiated adipocytes): lower protein levels | level of adipogenesis induction-associated proteins ([2]; simultaneous treatment with Wnt3a-conditional media (2.5%)): lower protein levels | alkaline phosphatase staining (ALP) positive cells (MC3T3-E1 cells [3]): strongly stained in a concentration-dependent manner | amount of adipogenesis induction-associated mRNA [4]: reduced

From patent publication US20240182525A1, “NOVEL BICYCLIC COMPOUND, OPTICAL ISOMER THEREOF OR PHARMACEUTICALLY ACCEPTABLE SALT THEREOF, USE THEREOF, AND PREPARATION METHOD THEREFOR” (KOREARESEARCH INSTITUTE OF BIOSCIENCE AND BIOTECHNOLOGY, priority 2021, published 2024)
